Reference: BindingDB's records for doi:10.1016/j.bmcl.2011.12.117 (Astrazeneca, 2012)

Experiment: Antagonist activity at CCR5 in allo T cells assessed as inhibition of MIP-1beta-induced chemotaxis

IC50: 0.69 nM
SMILES: CCN(C(=O)Cc1ccc(S(C)(=O)=O)cc1)C1CCN(CC[C@@H](c2cc(F)cc(F)c2)C2CCN(S(C)(=O)=O)CC2)CC1
